Assay results reported in US8293774B2, “Optically active (R)-aryloxypropionic acid amides and herbicidal composition comprising same” (Kyung Nong Corporation, priority 2007, dated 2012).

How the values were obtained:
Test in all cases: Weed control test, foliage treatment (Test Example 1, Table 7)
[1] = tested on: TRZAW (Tritium aestivum L., wheat); details: in vivo
[2] = tested on: HORVU (Hordeum vulgare L., barley); details: in vivo
[3] = tested on: GLXMA (Glycine max(L.) MERR, soy bean); details: in vivo
[4] = tested on: ORYSA (Oryza sativa cv. Dongjin, rice); details: in vivo
[5] = tested on: DIGSA (Digitaria Sanguinalis (L.) SCOP, large crabgrass); assay type: in vivo; details: Digitaria sanguinalis, foliar, read-out: Plant damage (herbicidal activity), visually evaluated, DIGSA; for pest or weed control at 25 g/ha: 0.025 kg/ha; for pest or weed control at 100 g/ha: 0.1 kg/ha; for pest or weed control at 200 g/ha: 0.2 kg/ha
How it was run: (§1)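 Post-emergence foliar spray, 2,000 l/ha aqueous emulsion (compound:acetone:emulsifier 1:5:1 w/w), applied once barnyard grass reached 3-leaf stage; greenhouse 20 to 30° C, sandy loam. Visual injury 1 to 100% vs untreated, 10 and 20 d post-treatment.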

[6] = tested on: ARTHIS (Arthraxon hispidus (Thunb.) Makino, creek grass); assay type: in vivo; details: Arthraxon hispidus, foliar, read-out: Plant damage (herbicidal activity), visually evaluated, ARTHIS; for pest or weed control at 25 g/ha: 0.025 kg/ha; for pest or weed control at 100 g/ha: 0.1 kg/ha; for pest or weed control at 200 g/ha: 0.2 kg/ha
How it was run: as §1

[7] = tested on: SORBI (Andropogon sorghum, common sorgum); assay type: in vivo; details: Sorghum bicolor, foliar, read-out: Plant damage (herbicidal activity), visually evaluated, SORBI; for pest or weed control at 25 g/ha: 0.025 kg/ha; for pest or weed control at 100 g/ha: 0.1 kg/ha; for pest or weed control at 200 g/ha: 0.2 kg/ha
How it was run: as §1

[8] = tested on: SETVIR (Setaria viridis (L.) Beauv, green foxtail); assay type: in vivo; details: Setaria viridis, foliar, read-out: Plant damage (herbicidal activity), visually evaluated, SETVIR; for pest or weed control at 25 g/ha: 0.025 kg/ha; for pest or weed control at 100 g/ha: 0.1 kg/ha; for pest or weed control at 200 g/ha: 0.2 kg/ha
How it was run: as §1

[9] = tested on: PANDI (Panium dichotomiflorum Michx, fall panicum); assay type: in vivo; details: Panicum dichotomiflorum, foliar, read-out: Plant damage (herbicidal activity), visually evaluated, PANDI; for pest or weed control at 25 g/ha: 0.025 kg/ha; for pest or weed control at 100 g/ha: 0.1 kg/ha; for pest or weed control at 200 g/ha: 0.2 kg/ha
How it was run: as §1

[10] = tested on: ECHOG (Echinoch crus-galli Beauv. var. caudata Kitagawa, barnyard grass); assay type: in vivo; details: Echinochloa crus-galli, foliar, 3-leaf stage, read-out: Plant damage (herbicidal activity), visually evaluated, ECHOG; for pest or weed control at 25 g/ha: 0.025 kg/ha; for pest or weed control at 100 g/ha: 0.1 kg/ha; for pest or weed control at 200 g/ha: 0.2 kg/ha
How it was run: as §1

[11] = tested on: ZEAMX (Zea mays L., corn); assay type: in vivo; details: Zea mays, foliar, read-out: Plant damage (herbicidal activity), visually evaluated, ZEAMX; for plant injury at 25 g/ha: 0.025 kg/ha; for plant injury at 100 g/ha: 0.1 kg/ha; for plant injury at 200 g/ha: 0.2 kg/ha
How it was run: as §1

C[C@@H](Oc1ccc(C(F)=C(c2ccc(F)cc2)C(F)(F)F)cc1)C(=O)Nc1ccccc1F [Example 40, (R)-2-[4-(1,3,3,3-tetrafluoro-2-(4-fluorophenyl)prop-1-enyl)phenoxy]propionic acid-N-(2-fluorophenyl)amide]
Plant damage (herbicidal activity), visually evaluated, TRZAW [1]: 0% | Plant damage (herbicidal activity), visually evaluated, HORVU [2]: 0% | Plant damage (herbicidal activity), visually evaluated, GLXMA [3]: 0% | Plant damage (herbicidal activity), visually evaluated, ORYSA [4]: 0% | pest or weed control at 25 g/ha [5]: 70% | pest or weed control at 100 g/ha [5]: 90% | pest or weed control at 200 g/ha [5]: 90% | pest or weed control at 25 g/ha [6]: 0% | pest or weed control at 100 g/ha [6]: 0% | pest or weed control at 200 g/ha [6]: 10% | pest or weed control at 25 g/ha [7]: 0% | pest or weed control at 100 g/ha [7]: 20% | pest or weed control at 200 g/ha [7]: 50% | pest or weed control at 25 g/ha [8]: 0% | pest or weed control at 100 g/ha [8]: 0% | pest or weed control at 200 g/ha [8]: 20% | pest or weed control at 25 g/ha [9]: 0% | pest or weed control at 100 g/ha [9]: 0% | pest or weed control at 200 g/ha [9]: 10% | pest or weed control at 25 g/ha [10]: 20% | pest or weed control at 100 g/ha [10]: 70% | pest or weed control at 200 g/ha [10]: 90% | plant injury at 25 g/ha [11]: 90% | plant injury at 100 g/ha [11]: 100% | plant injury at 200 g/ha [11]: 100%

Cc1ccc(C=C(F)Oc2ccc(O[C@H](C)C(=O)Nc3ccccc3F)cc2)cc1 [Example 41, (R)-2-[4-(1-fluoro-2-(4-methylphenyl)vinyloxy)phenoxy]propionic acid-N-(2-fluorophenyl)amide]
Plant damage (herbicidal activity), visually evaluated, TRZAW [1]: 0% | Plant damage (herbicidal activity), visually evaluated, HORVU [2]: 0% | Plant damage (herbicidal activity), visually evaluated, GLXMA [3]: 0% | Plant damage (herbicidal activity), visually evaluated, ORYSA [4]: 0% | pest or weed control at 25 g/ha [5]: 0% | pest or weed control at 100 g/ha [5]: 0% | pest or weed control at 200 g/ha [5]: 50% | pest or weed control at 25 g/ha [6]: 0% | pest or weed control at 100 g/ha [6]: 0% | pest or weed control at 200 g/ha [6]: 20% | pest or weed control at 25 g/ha [7]: 0% | pest or weed control at 100 g/ha [7]: 0% | pest or weed control at 200 g/ha [7]: 0% | pest or weed control at 25 g/ha [8]: 0% | pest or weed control at 100 g/ha [8]: 20% | pest or weed control at 200 g/ha [8]: 70% | pest or weed control at 25 g/ha [9]: 20% | pest or weed control at 100 g/ha [9]: 70% | pest or weed control at 200 g/ha [9]: 70% | pest or weed control at 25 g/ha [10]: 0% | pest or weed control at 100 g/ha [10]: 0% | pest or weed control at 200 g/ha [10]: 20% | plant injury at 25 g/ha [11]: 0% | plant injury at 100 g/ha [11]: 0% | plant injury at 200 g/ha [11]: 20%

C[C@@H](Oc1ccc(C(F)=C(c2ccccc2)C(F)(F)F)cc1)C(=O)Nc1ccccc1F [Example 42, (R)-2-[4-(1,3,3,3-tetrafluoro-2-phenylprop-1-enyl)phenoxy]propionic acid-N-(2-fluorophenyl)amide]
Plant damage (herbicidal activity), visually evaluated, TRZAW [1]: 0% | Plant damage (herbicidal activity), visually evaluated, HORVU [2]: 0% | Plant damage (herbicidal activity), visually evaluated, GLXMA [3]: 0% | Plant damage (herbicidal activity), visually evaluated, ORYSA [4]: 0% | pest or weed control at 25 g/ha [5]: 0% | pest or weed control at 100 g/ha [5]: 0% | pest or weed control at 200 g/ha [5]: 20% | pest or weed control at 25 g/ha [6]: 0% | pest or weed control at 100 g/ha [6]: 0% | pest or weed control at 200 g/ha [6]: 50% | pest or weed control at 25 g/ha [7]: 0% | pest or weed control at 100 g/ha [7]: 0% | pest or weed control at 200 g/ha [7]: 0% | pest or weed control at 25 g/ha [8]: 0% | pest or weed control at 100 g/ha [8]: 0% | pest or weed control at 200 g/ha [8]: 70% | pest or weed control at 25 g/ha [9]: 0% | pest or weed control at 100 g/ha [9]: 0% | pest or weed control at 200 g/ha [9]: 70% | pest or weed control at 25 g/ha [10]: 0% | pest or weed control at 100 g/ha [10]: 20% | pest or weed control at 200 g/ha [10]: 20% | plant injury at 25 g/ha [11]: 0% | plant injury at 100 g/ha [11]: 30% | plant injury at 200 g/ha [11]: 90%

C[C@@H](Oc1ccc(C(F)=C(c2ccccc2)C(F)(F)F)cc1)C(=O)Nc1nc2cc(Cl)ccc2o1 [Example 55, (R)-2-[4-(1,3,3,3-tetrafluoro-2-phenylprop-1-enyl)phenoxy]propionic acid-N-(5-chloro-2-benzoxazolyl)amide]
Plant damage (herbicidal activity), visually evaluated, TRZAW [1]: 0% | Plant damage (herbicidal activity), visually evaluated, HORVU [2]: 0% | Plant damage (herbicidal activity), visually evaluated, GLXMA [3]: 0% | Plant damage (herbicidal activity), visually evaluated, ORYSA [4]: 0% | pest or weed control at 25 g/ha [5]: 0% | pest or weed control at 100 g/ha [5]: 0% | pest or weed control at 200 g/ha [5]: 0% | pest or weed control at 25 g/ha [6]: 0% | pest or weed control at 100 g/ha [6]: 0% | pest or weed control at 200 g/ha [6]: 0% | pest or weed control at 25 g/ha [7]: 10% | pest or weed control at 100 g/ha [7]: 20% | pest or weed control at 200 g/ha [7]: 35% | pest or weed control at 25 g/ha [8]: 0% | pest or weed control at 100 g/ha [8]: 0% | pest or weed control at 200 g/ha [8]: 0% | pest or weed control at 25 g/ha [9]: 0% | pest or weed control at 100 g/ha [9]: 0% | pest or weed control at 200 g/ha [9]: 0% | pest or weed control at 25 g/ha [10]: 0% | pest or weed control at 100 g/ha [10]: 0% | pest or weed control at 200 g/ha [10]: 0% | plant injury at 25 g/ha [11]: 10% | plant injury at 100 g/ha [11]: 10% | plant injury at 200 g/ha [11]: 30%
